Laboratory results from PubChem BioAssay AID1963839 (Molecular Pharmacology Branch, DTP, NCI, 2024).

Tested on: 817829-284-R-J1-PDC complex spheroid viability
Experiment: Anticancer human tumor 817829-284-R-J1-PDC patient-derived colon adenocarcinoma cell line growth inhibition [POLQ]
Conditions: for IC50: curve of first compound; for viability, T/C: stronger effect = lower value
Summary of the method: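 Complex spheroid viability model combining PDC tumour cells with endothelial (HUVEC) and MSC stromal cells. Novobiocin, ART-558 or RP6685 were tested singly and in combination with standard and investigational anticancer drugs. Each was titrated in half-log steps from near clinical Cmax, or from 10 microM where Cmax was unknown.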
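Note: spheroids exposed to compounds for 7 days.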
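Throughout, for viability, T/C: 100% = DMSO vehicle-treated spheroids.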

Work on `CC(=O)O[C@H]1C(=O)[C@@]2(C)[C@H]([C@H](OC(=O)c3ccccc3)[C@]3(O)C[C@H](OC(=O)[C@H](O)[C@@H](NC(=O)c4ccccc4)c4ccccc4)C(C)=C1C3(C)C)[C@]1(OC(C)=O)CO[C@@H]1C[C@@H]2O` + Cc1cccc(N(C)C(=O)C2C(O)CCN2c2nc(C)cc(C(F)(F)F)c2C#N)c1 yielded an IC50 (second compound 0.0316 µM) of under 9.49 nM, an IC50 (second compound 0.1 µM) of under 9.49 nM and an IC50 (second compound 0.316 µM) of under 9.49 nM. It also gave an IC50 (second compound 1 µM) of under 9.49 nM, an IC50 (second compound 3.16 µM) of under 9.49 nM and an IC50 (second compound 10 µM) of under 9.49 nM. It also gave a viability, T/C (second compound 0.0316 µM, first compound 0.00949 µM) of 4.71%, a viability, T/C (second compound 0.0316 µM, first compound 0.03 µM) of 4.06% and a viability, T/C (second compound 0.0316 µM, first compound 0.0949 µM) of 3.84%. The viability, T/C (second compound 0.0316 µM, first compound 0.3 µM) was 3.78%, the viability, T/C (second compound 0.0316 µM, first compound 0.949 µM) was 3.98% and the viability, T/C (second compound 0.0316 µM, first compound 3 µM) was 4.66%. For the same compound, the viability, T/C (second compound 0.1 µM, first compound 0.00949 µM) was 4.94%, the viability, T/C (second compound 0.1 µM, first compound 0.03 µM) was 4.36% and the viability, T/C (second compound 0.1 µM, first compound 0.0949 µM) was 3.84%. For the same compound, the viability, T/C (second compound 0.1 µM, first compound 0.3 µM) was 4.37%, the viability, T/C (second compound 0.1 µM, first compound 0.949 µM) was 4.32% and the viability, T/C (second compound 0.1 µM, first compound 3 µM) was 4.51%. It also gave a viability, T/C (second compound 0.316 µM, first compound 0.00949 µM) of 4.66%, a viability, T/C (second compound 0.316 µM, first compound 0.03 µM) of 4.72% and a viability, T/C (second compound 0.316 µM, first compound 0.0949 µM) of 4.39%. For the same compound, the viability, T/C (second compound 0.316 µM, first compound 0.3 µM) was 4.37%, the viability, T/C (second compound 0.316 µM, first compound 0.949 µM) was 4.24% and the viability, T/C (second compound 0.316 µM, first compound 3 µM) was 3.51%. It also gave a viability, T/C (second compound 1 µM, first compound 0.00949 µM) of 4.57%, a viability, T/C (second compound 1 µM, first compound 0.03 µM) of 8.02% and a viability, T/C (second compound 1 µM, first compound 0.0949 µM) of 4.15%. For the same compound, the viability, T/C (second compound 1 µM, first compound 0.3 µM) was 4.37%, the viability, T/C (second compound 1 µM, first compound 0.949 µM) was 4.04% and the viability, T/C (second compound 1 µM, first compound 3 µM) was 4.46%. For the same compound, the viability, T/C (second compound 3.16 µM, first compound 0.00949 µM) was 4.41%, the viability, T/C (second compound 3.16 µM, first compound 0.03 µM) was 3.99% and the viability, T/C (second compound 3.16 µM, first compound 0.0949 µM) was 4.51%. For the same compound, the viability, T/C (second compound 3.16 µM, first compound 0.3 µM) was 4.14%, the viability, T/C (second compound 3.16 µM, first compound 0.949 µM) was 3.93% and the viability, T/C (second compound 3.16 µM, first compound 3 µM) was 3.87%. It also gave a viability, T/C (second compound 10 µM, first compound 0.00949 µM) of 4.67%, a viability, T/C (second compound 10 µM, first compound 0.03 µM) of 3.97% and a viability, T/C (second compound 10 µM, first compound 0.0949 µM) of 4.2%. The viability, T/C (second compound 10 µM, first compound 0.3 µM) was 4.14%, the viability, T/C (second compound 10 µM, first compound 0.949 µM) was 4.11% and the viability, T/C (second compound 10 µM, first compound 3 µM) was 4.13%.

In the case of `CC[C@@]1(O)C(=O)OCc2c1cc1n(c2=O)Cc2cc3c(CN(C)C)c(O)ccc3nc2-1` + Cc1cccc(N(C)C(=O)C2C(O)CCN2c2nc(C)cc(C(F)(F)F)c2C#N)c1, the IC50 (second compound 0.0316 µM) is reported as 6.93 nM, the IC50 (second compound 0.1 µM) is reported as 7.54 nM and the IC50 (second compound 0.316 µM) is reported as 8.14 nM. The IC50 (second compound 1 µM) was 6.95 nM, the IC50 (second compound 3.16 µM) was 7.21 nM and the IC50 (second compound 10 µM) was 6.98 nM. The viability, T/C (second compound 0.0316 µM, first compound 0.000316 µM) was 109%, the viability, T/C (second compound 0.0316 µM, first compound 0.001 µM) was 121% and the viability, T/C (second compound 0.0316 µM, first compound 0.00316 µM) was 78.5%. For the same compound, the viability, T/C (second compound 0.0316 µM, first compound 0.01 µM) was 38%, the viability, T/C (second compound 0.0316 µM, first compound 0.0316 µM) was 22.6% and the viability, T/C (second compound 0.0316 µM, first compound 0.1 µM) was 18.1%. For the same compound, the viability, T/C (second compound 0.1 µM, first compound 0.000316 µM) was 87.9%, the viability, T/C (second compound 0.1 µM, first compound 0.001 µM) was 118% and the viability, T/C (second compound 0.1 µM, first compound 0.00316 µM) was 72.8%. It also gave a viability, T/C (second compound 0.1 µM, first compound 0.01 µM) of 43.6%, a viability, T/C (second compound 0.1 µM, first compound 0.0316 µM) of 23.5% and a viability, T/C (second compound 0.1 µM, first compound 0.1 µM) of 17.4%. For the same compound, the viability, T/C (second compound 0.316 µM, first compound 0.000316 µM) was 103%, the viability, T/C (second compound 0.316 µM, first compound 0.001 µM) was 96.8% and the viability, T/C (second compound 0.316 µM, first compound 0.00316 µM) was 61.6%. It also gave a viability, T/C (second compound 0.316 µM, first compound 0.01 µM) of 54.1%, a viability, T/C (second compound 0.316 µM, first compound 0.0316 µM) of 20% and a viability, T/C (second compound 0.316 µM, first compound 0.1 µM) of 15.3%. The viability, T/C (second compound 1 µM, first compound 0.000316 µM) was 124%, the viability, T/C (second compound 1 µM, first compound 0.001 µM) was 84.9% and the viability, T/C (second compound 1 µM, first compound 0.00316 µM) was 76.2%. The viability, T/C (second compound 1 µM, first compound 0.01 µM) was 38.9%, the viability, T/C (second compound 1 µM, first compound 0.0316 µM) was 22% and the viability, T/C (second compound 1 µM, first compound 0.1 µM) was 17.2%. It also gave a viability, T/C (second compound 3.16 µM, first compound 0.000316 µM) of 89.7%, a viability, T/C (second compound 3.16 µM, first compound 0.001 µM) of 123% and a viability, T/C (second compound 3.16 µM, first compound 0.00316 µM) of 83.2%. For the same compound, the viability, T/C (second compound 3.16 µM, first compound 0.01 µM) was 37.2%, the viability, T/C (second compound 3.16 µM, first compound 0.0316 µM) was 21.4% and the viability, T/C (second compound 3.16 µM, first compound 0.1 µM) was 16.8%. The viability, T/C (second compound 10 µM, first compound 0.000316 µM) was 89.5%, the viability, T/C (second compound 10 µM, first compound 0.001 µM) was 113% and the viability, T/C (second compound 10 µM, first compound 0.00316 µM) was 82.7%. For the same compound, the viability, T/C (second compound 10 µM, first compound 0.01 µM) was 34.8%, the viability, T/C (second compound 10 µM, first compound 0.0316 µM) was 22.2% and the viability, T/C (second compound 10 µM, first compound 0.1 µM) was 14.6%.
